Test results reported in patent US20260242356A1, “BICYCLIC HETEROCYCLIC AMIDE INHIBITORS OF NAv1.8 FOR THE TREATMENT OF PAIN” (priority 2022, published 2026).

These molecules were tested against T1, human NaV sodium channel α-subunit NaV 1.8 (Homo sapiens, UniProt Q9Y5Y9) (assay: NaV inhibition assay, whole-cell patch-clamp (HEKA EPC 9 amplifier)). Conditions: not given.
T1 construct: transfected with the full-length cDNA coding for the appropriate human NaV sodium channel α-subunit NaV 1.8; expressed in transfected cells; host or cells: HEK293 cells
Assay type: cell-based
Experimental: Electrophysiology experiments were performed on Human Embryonic Kidney 293 cells (HEK) or Chinese hamster ovary cells (CHO) transfected with the full-length cDNA coding for the appropriate human NaV sodium channel α-subunit NaV 1.8. Similarly, experiments are performed on Human Embryonic Kidney 293 cells (HEK) or Chinese hamster ovary cells (CHO) transfected with the full-length cDNA coding for the appropriate human NaV sodium channel α-subunit, including NaV 1.7, NaV 1.6, NaV 1.5, and NaV 1.4.
Sodium currents were measured using the patch-clamp technique in the whole-cell configuration with a HEKA EPC 9 amplifier (HEKA Elektronik Dr. Schulze GmbH, Germany) or can be measured using an IonFlux 16 automated patch clamp system (Fluxion Biosciences, South San Francisco, USA) as previously described by Moran. See, Moran O, Picollo A, Conti F (2003) Tonic and phasic guanidinium toxin-block of skeletal muscle Na channels expressed in Mammalian cells, Biophys J 84(5):2999-3006. For manual patch-clamp experiments, borosilicate glass micropipettes (Sutter Instruments, Novato, CA) were pulled to a tip diameter yielding a resistance of 1.0-2.0 MΩ in the working solutions. The composition of intracellular solution was (in mM): CsF 125, EGTA 10, HEPES 10, NaCl 10, and the pH was adjusted to 7.2 with CsOH. The composition of extracellular solution was (in mM): NaCl 135, KCl 4.5, CaCl2 2, MgCl2 1, HEPES 10, and the pH was adjusted to 7.4 with NaOH. For human NaV 1.8, 0.3-1 μM tetrodotoxin (TTX) was added to the extracellular solution to inhibit native TTX-sensitive current. Peak currents were generally between 0.5-20 nA.
Lyophilized stock of each test article was stored at −20° C., solubilized in DMSO (maximum final concentration 1%) and diluted to the desired concentration with the external solution prior to recording. Current measurements were recorded under continuous perfusion, controlled by syringe pump addition.
The output of the EPC 9 patch-clamp amplifier was filtered with a built-in low-pass, four-pole Bessel filter having a cutoff frequency of 10 kHz and sampled at 20-50 kHz. For both manual and automated recordings, the membrane was kept at a holding potential of between −120 and −80 mV. Pulse stimulation and data acquisition were controlled with the Pulse software (HEKA Elektronik Dr. Schulze GmbH, Germany) or the IonFlux software (Fluxion Biosciences, South San Francisco, USA). All measurements were performed at room temperature (about 20-22° C.). Recordings were made at least 5 min after establishing the whole-cell and voltage-clamp configuration to allow for stabilization of the voltage-dependent properties of the channels. Currents were elicited by 10-50 ms step depolarizations from a holding potential to a value between −40 and +10 mV. Peak currents after channel activation were recorded. […] Data were fit to a four-parameter logistic equation with the Hill slope set to 1 to determine IC50 values and expressed as mean.
For Table 1 and Table 2, all data were measured in HEK cells. Column 1 provides IC50 data for NaV 1.8 as measured using the patch-clamp technique in the whole-cell configuration with a HEKA EPC 9 amplifier, where +++ indicates an IC50 of less than or equal to 20 nM, ++ indicates an IC50 of greater than 20 nM but less that or equal to 100 nM, and + indicates an IC50 of greater than 100 nM but less that or equal to […]. ND means not detectable. NT means not tested.

T1 sequence (Q9Y5Y9 whole entry): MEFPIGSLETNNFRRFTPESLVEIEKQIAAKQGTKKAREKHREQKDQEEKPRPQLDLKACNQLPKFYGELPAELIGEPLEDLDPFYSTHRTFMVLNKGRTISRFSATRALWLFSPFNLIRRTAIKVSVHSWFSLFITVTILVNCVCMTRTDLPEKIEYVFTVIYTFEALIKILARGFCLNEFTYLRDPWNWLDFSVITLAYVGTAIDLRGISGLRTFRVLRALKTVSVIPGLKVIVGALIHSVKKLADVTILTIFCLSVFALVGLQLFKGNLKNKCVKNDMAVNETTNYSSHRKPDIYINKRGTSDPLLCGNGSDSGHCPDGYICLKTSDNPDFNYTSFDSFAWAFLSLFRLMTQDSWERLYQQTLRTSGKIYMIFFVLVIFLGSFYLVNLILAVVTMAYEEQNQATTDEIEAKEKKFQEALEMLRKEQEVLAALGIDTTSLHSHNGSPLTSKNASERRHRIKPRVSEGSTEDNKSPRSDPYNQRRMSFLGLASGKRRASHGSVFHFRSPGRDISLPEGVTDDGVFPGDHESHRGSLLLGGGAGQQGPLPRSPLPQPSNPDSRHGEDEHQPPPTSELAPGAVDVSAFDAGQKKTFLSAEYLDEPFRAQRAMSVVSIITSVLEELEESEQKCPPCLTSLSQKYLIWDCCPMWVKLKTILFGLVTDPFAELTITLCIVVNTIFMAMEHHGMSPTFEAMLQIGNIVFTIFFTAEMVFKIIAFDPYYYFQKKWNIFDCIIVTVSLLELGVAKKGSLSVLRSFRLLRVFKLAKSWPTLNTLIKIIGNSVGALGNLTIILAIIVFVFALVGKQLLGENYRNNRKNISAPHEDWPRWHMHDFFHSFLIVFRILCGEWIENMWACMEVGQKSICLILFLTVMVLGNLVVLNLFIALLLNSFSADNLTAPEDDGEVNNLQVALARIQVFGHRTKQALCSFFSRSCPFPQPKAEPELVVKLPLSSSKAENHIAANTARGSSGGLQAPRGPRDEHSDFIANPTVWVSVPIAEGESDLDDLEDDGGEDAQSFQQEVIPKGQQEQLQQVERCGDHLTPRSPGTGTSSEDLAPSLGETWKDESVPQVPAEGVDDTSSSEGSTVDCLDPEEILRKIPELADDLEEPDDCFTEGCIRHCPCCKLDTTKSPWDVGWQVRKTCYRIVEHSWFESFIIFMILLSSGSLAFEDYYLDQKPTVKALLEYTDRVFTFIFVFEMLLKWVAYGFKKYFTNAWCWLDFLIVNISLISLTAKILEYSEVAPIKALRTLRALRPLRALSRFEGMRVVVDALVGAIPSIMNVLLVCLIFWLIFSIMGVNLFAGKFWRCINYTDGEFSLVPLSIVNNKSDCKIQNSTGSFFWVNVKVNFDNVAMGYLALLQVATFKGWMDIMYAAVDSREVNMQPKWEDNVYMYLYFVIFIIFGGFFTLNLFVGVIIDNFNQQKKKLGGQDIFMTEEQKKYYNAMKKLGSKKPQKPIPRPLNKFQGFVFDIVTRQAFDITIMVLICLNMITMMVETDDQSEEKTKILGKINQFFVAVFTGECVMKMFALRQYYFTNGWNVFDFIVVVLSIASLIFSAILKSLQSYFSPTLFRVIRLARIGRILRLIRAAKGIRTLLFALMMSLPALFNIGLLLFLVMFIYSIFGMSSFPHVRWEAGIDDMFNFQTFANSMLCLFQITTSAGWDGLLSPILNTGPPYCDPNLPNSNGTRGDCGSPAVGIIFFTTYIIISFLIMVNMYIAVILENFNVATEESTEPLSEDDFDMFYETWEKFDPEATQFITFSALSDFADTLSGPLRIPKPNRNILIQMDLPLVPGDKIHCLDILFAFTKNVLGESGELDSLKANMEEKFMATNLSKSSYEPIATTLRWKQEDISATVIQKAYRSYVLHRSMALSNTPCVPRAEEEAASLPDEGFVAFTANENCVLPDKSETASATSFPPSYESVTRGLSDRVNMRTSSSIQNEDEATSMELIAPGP

Row | Compound | IC50 [nM]
1 | CS(=N)(=O)c1cccc(NC(=O)c2cc3ccccc3nc2N2CCCC(F)(F)CC2)c1 (stereo not drawn) [Compound 1, 2-(4,4-difluoroazepan-1-yl)-N-(3-(S-methylsulfonimidoyl)phenyl)quinoline-3-carboxamide] | < 20
2 | NS(=O)(=O)c1cccc(NC(=O)c2cc3ccccc3nc2N2CCCC(F)(F)CC2)c1 [Compound 2, 2-(4,4-difluoroazepan-1-yl)-N-(3-sulfamoylphenyl)quinoline-3-carboxamide] | < 20
3 | Nc1noc2ccc(NC(=O)c3cc4ccccc4nc3N3CCCC(F)(F)CC3)cc12 [Compound 3, N-(3-aminobenzo[d]isoxazol-5-yl)-2-(4,4-difluoroazepan-1-yl)quinoline-3-carboxamide] | < 20
4 | NC(=O)c1cccc(NC(=O)c2cc3ccccc3nc2N2CCCC(F)(F)CC2)c1 [Compound 4, N-(3-carbamoylphenyl)-2-(4,4-difluoroazepan-1-yl)quinoline-3-carboxamide] | < 20
5 | CC1CN(c2nc3ccccc3cc2C(=O)Nc2cccc(S(N)(=O)=O)c2)CCC1(F)F (stereo not drawn) [Compound 5, 2-(4,4-difluoro-3-methylpiperidin-1-yl)-N-(3-sulfamoylphenyl)quinoline-3-carboxamide] | < 20
6 | CS(=O)(=O)c1cccc(NC(=O)c2nc3ccccc3nc2N2CCCC(F)(F)CC2)c1 [Compound 6, 3-(4,4-difluoroazepan-1-yl)-N-(3-methanesulfonylphenyl)quinoxaline-2-carboxamide] | < 20
7 | CS(=N)(=O)c1cccc(NC(=O)c2nc3ccccc3nc2N2CCCC(F)(F)CC2)c1 (stereo not drawn) [Compound 7, 3-(4,4-difluoroazepan-1-yl)-N-(3-(S-methylsulfonimidoyl)phenyl)quinoxaline-2-carboxamide] | 20 to 100
8 | NS(=O)(=O)c1cccc(NC(=O)c2nc3ccccc3nc2N2CCCC(F)(F)CC2)c1 [Compound 8, 3-(4,4-difluoroazepan-1-yl)-N-(3-sulfamoylphenyl)quinoxaline-2-carboxamide] | 20 to 100
9 | NS(=O)(=O)c1cccc(NC(=O)c2cc3cc(F)ccc3nc2N2CCCC(F)(F)CC2)c1 [Compound 9, 2-(4,4-difluoroazepan-1-yl)-6-fluoro-N-(3-sulfamoylphenyl)quinoline-3-carboxamide] | 20 to 100
10 | NS(=O)(=O)c1cccc(NC(=O)c2cc3cc(F)c(F)cc3nc2N2CCCC(F)(F)CC2)c1 [Compound 10, 2-(4,4-difluoroazepan-1-yl)-6,7-difluoro-N-(3-sulfamoylphenyl)quinoline-3-carboxamide] | 20 to 100
11 | COc1ccc2nc(N3CCCC(F)(F)CC3)c(C(=O)Nc3cccc(S(N)(=O)=O)c3)cc2c1 [Compound 11, 2-(4,4-difluoroazepan-1-yl)-6-methoxy-N-(3-sulfamoylphenyl)quinoline-3-carboxamide] | < 20
12 | NS(=O)(=O)c1cccc(NC(=O)c2cc3cc(Cl)ccc3nc2N2CCCC(F)(F)CC2)c1 [Compound 12, 6-chloro-2-(4,4-difluoroazepan-1-yl)-N-(3-sulfamoylphenyl)quinoline-3-carboxamide] | < 20
13 | NS(=O)(=O)c1cccc(NC(=O)c2cc3ccc(Cl)cc3nc2N2CCCC(F)(F)CC2)c1 [Compound 13, 7-chloro-2-(4,4-difluoroazepan-1-yl)-N-(3-sulfamoylphenyl)quinoline-3-carboxamide] | 20 to 100
14 | NC(=O)c1cccc(NC(=O)c2nc3ccccc3nc2N2CCCC(F)(F)CC2)c1 [Compound 14, N-(3-carbamoylphenyl)-3-(4,4-difluoroazepan-1-yl)quinoxaline-2-carboxamide] | 20 to 100
15 | NS(=O)(=O)c1cccc(NC(=O)c2cc3ccncc3nc2N2CCCC(F)(F)CC2)c1 [Compound 15, 2-(4,4-difluoroazepan-1-yl)-N-(3-sulfamoylphenyl)-1,7-naphthyridine-3-carboxamide] | < 20
16 | COc1ccc2cc(C(=O)Nc3cccc(S(N)(=O)=O)c3)c(N3CCCC(F)(F)CC3)nc2c1 [Compound 16, 2-(4,4-difluoroazepan-1-yl)-7-methoxy-N-(3-sulfamoylphenyl)quinoline-3-carboxamide] | 20 to 100
17 | NS(=O)(=O)c1cccc(NC(=O)c2cc3cc(C(F)(F)F)ccc3nc2N2CCCC(F)(F)CC2)c1 [Compound 17] | < 20
18 | NS(=O)(=O)c1cccc(NC(=O)c2cc3c(nc2N2CCCC(F)(F)CC2)CCCC3)c1 [Compound 18, 2-(4,4-difluoroazepan-1-yl)-N-(3-sulfamoylphenyl)-5,6,7,8-tetrahydroquinoline-3-carboxamide] | 20 to 100
19 | NS(=O)(=O)c1cccc(NC(=O)c2cc3cnccc3nc2N2CCCC(F)(F)CC2)c1 [Compound 20, 2-(4,4-difluoroazepan-1-yl)-N-(3-sulfamoylphenyl)-1,6-naphthyridine-3-carboxamide] | 20 to 100
20 | NS(=O)(=O)c1cccc(NC(=O)c2cc3ccc(F)cc3nc2N2CCCC(F)(F)CC2)c1 [Compound 28, 2-(4,4-difluoroazepan-1-yl)-7-fluoro-N-(3-sulfamoylphenyl)quinoline-3-carboxamide] | < 20

Same assay, conditions: HEK cells transfected with human NaV 1.8; whole-cell patch-clamp; 0.3-1 μM TTX in extracellular solution; room temperature

Row | Compound | NaV1.8 IC50 (nM)
21 | NS(=O)(=O)c1cccc(NC(=O)c2cc3cccnc3nc2N2CCCC(F)(F)CC2)c1 [Compound 19, 2-(4,4-difluoroazepan-1-yl)-N-(3-sulfamoylphenyl)-1,8-naphthyridine-3-carboxamide] | + (+ indicates an IC50 of greater than 100 nM but less that or equal to 1.5 M)
